Values quoted from earlier work in patent US6645508B1, “Stable L-ascorbic acid composition” (priority 1999, dated 2003).

System: human skin fibroblasts
Conditions: at concentrations equivalent to L-Ascorbic acid

In the case of `CCCCCCCCCCCCCCCC(=O)OC[C@H](O)[C@H]1OC(=O)C(O)=C1O` [ascorbyl palmitate], the “effect on human skin fibroblasts” value is listed as “killed human skin fibroblasts”.
